US9751881B2, “Inhibitors of the renal outer medullary potassium channel” (Merck Sharp & Dohme Corp., priority 2013, dated 2017)
Where a name gives a salt, the structure may show the parent alone.

Target: hROMK (hKir1.1) (Homo sapiens (Human), UniProt P48048)
Assay: Thallium Flux Assay (ROMK channel functional thallium flux, FLIPR-Tetra)
Type: cell-based
Conditions: HEK293 cells stably expressing hROMK (hKir1.1); unit not given in Table 4 (IC50 potencies less than 1 μM); read-out: ROMK TI IC50
Procedure: Cell Culture Conditions—HEK293 cells stably expressing hROMK (hKir1.1) were grown at 37° C. in a 10% CO2 humidified incubator in complete growth media: Dulbecco's Modified Eagle Medium supplemented with non-essential amino acids, Penicillin/Streptomycin/Glutamine, G418 and FBS. At >80% confluency, the media was aspirated from the flask and rinsed with 10 mL calcium/magnesium-free PBS. […] To dislodge the cell, the side of the flask was gently banged with one's hand. The cells completely titrated and then the cells were transferred to 25 mL complete media, centrifuged at 1,500 rpm for 6 min followed by resuspension in complete growth media and determine cell concentration. […] Under ideal growth conditions and appropriate tissue culture practices, this cell line is stable for 40-45 passages.
FluxOR Kit Components (Invitrogen F10017)
• FluxOR™ Reagent (Component A) • FluxOR™ Assay Buffer (Component B)—10× Concentrate • PowerLoad™ Concentrate (Component C)—100× Concentrate • Probenecid (Component D)—Lyophilized sample is kept at −20° C. Water soluble, 100× after solubilization in 1 mL water. […] Store at 4° C. • Thallium sulfate (Tl2SO4) Concentrate (Component G)—50 mM in water. […] Can be stored at room temperature • Stimulant Buffer (prepared at 5× final concentration in 1× FluxOR™Chloride-Free Buffer): 7.5 mM thallium sulfate and 0.75 mM potassium sulfate (to give a final assay concentration of 3 mM Thallium/0.3 mM potassium). Store at 4° C. when not in use. If kept sterile, this solution is good for months.
• 1. Seed HEK-hKir1.1 cells (50 μl at 20,000 cells/well) in 384-well PDL coated Microplates • 2. Allow cells to adhere overnight in humidified 37° C./10% CO2 incubator • 3. Completely remove cell growth media from microplate and replace with 25 μl loading buffer • 4. Incubate Microplate at room temperature, protected form light, for 90 min • 5. Remove loading buffer and replace with 25 μl 1× Assay Buffer±test compound. • 6. Incubate microplate at room temperature, protected from light, for 30 min • 7. […] Excitation=400 nm, Emission=460 & 580 nm. Collect data for ˜10 min.
Data Calculation—The fluorescence intensity of wells containing 3 μM of a standard control ROMK inhibitor of the present invention was used to define the ROMK-sensitive component of thallium flux. Fluorescence in the presence of test compounds was normalized to control values to provide % fluorescence change.

Chain of hROMK (hKir1.1) (P48048 whole entry): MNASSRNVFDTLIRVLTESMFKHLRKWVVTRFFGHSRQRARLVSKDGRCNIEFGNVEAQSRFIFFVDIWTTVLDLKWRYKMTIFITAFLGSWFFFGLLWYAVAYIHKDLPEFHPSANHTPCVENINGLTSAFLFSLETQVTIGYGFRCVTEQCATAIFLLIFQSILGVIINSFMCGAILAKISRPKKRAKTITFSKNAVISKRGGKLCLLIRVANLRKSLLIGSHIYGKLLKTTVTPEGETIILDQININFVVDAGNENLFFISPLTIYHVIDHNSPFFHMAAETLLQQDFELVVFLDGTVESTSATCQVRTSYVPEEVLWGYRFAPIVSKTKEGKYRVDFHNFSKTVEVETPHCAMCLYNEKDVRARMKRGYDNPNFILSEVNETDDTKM

| IC50 | Compound |
| --- | --- |
| 148 nM | CCS(=O)(=O)c1cnc(N2CC3(CCN(C[C@H](O)c4ccc5c(c4C)COC5=O)CC3)OC2=O)cn1 [Example 93, (R)-3-(5-(Ethylsulfonyl)pyrazin-2-yl)-8-(2-hydroxy-2-(4-methyl-1-oxo-1,3-dihydroisobenzofuran-5-yl)ethyl)-1-oxa-3,8-diazaspiro[4.5]decan-2-one] |
| 376 nM | Cc1c([C@@H](O)CN2CCC3(CC2)CN(c2ccc(S(C)(=O)=O)cn2)CCO3)ccc2c1COC2=O [Example 98, (R)-5-(1-Hydroxy-2-(4-(5-(methylsulfonyl)pyridin-2-yl)-1-oxa-4,9-diazaspiro[5.5]undecan-9-yl)ethyl)-4-methylisobenzofuran-1(3H)-one] |
| 341 nM | Cc1c([C@H](O)CN2CCC3(CC2)CCN(c2ccc(S(C)(=O)=O)cn2)C3)ccc2c1COC2=O [Example 56, (S)-5-(1-Hydroxy-2-(2-(5-(methylsulfonyl)pyridin-2-yl)-2,8-diazaspiro[4.5]decan-8-yl)ethyl)-4-methylisobenzofuran-1(3H)-one] |
| 51 nM | COc1cc(N2CC3(CCN(C[C@H](O)c4ccc5c(c4C)COC5=O)CC3)CC2=O)ccc1C#N [Example 16, (R)-4-(8-(2-Hydroxy-2-(4-methyl-1-oxo-1,3-dihydroisobenzofuran-5-yl)ethyl)-3-oxo-2,8-diazaspiro[4.5]decan-2-yl)-2-methoxybenzonitrile] |
| 50.1 nM | CC1Cc2cc(C(O)CN3CCC4(CC3)CCN(c3ccc(C#N)cn3)C4)ccc2C(=O)O1 [Example 21, 6-(8-(2-Hydroxy-2-((R)-3-methyl-1-oxoisochroman-6-yl)ethyl)-2,8-diazaspiro[4.5]decan-2-yl)nicotinonitrile] |
| 136 nM | Cc1nc(N2CCC3(CCN(CC(O)c4ccc5c(c4C)COC5=O)CC3)CC2)ccc1C#N (stereo not shown) [Example 114] |
| 37 nM | Cc1c([C@@H](O)CN2CCC3(CC2)CCN(c2ccc(C#N)cn2)C3=O)ccc2c1COC2=O [Example 5, 6-{8-[(2R)-2-hydroxy-2-(4-methyl-1-oxo-1,3-dihydro-2-benzofuran-5-yl)ethyl]-1-oxo-2,8-diazaspiro[4.5]dec-2-yl}pyridine-3-carbonitrile] |
| 190 nM | Cc1c(CCN2CCC3(CC2)CCN(c2ccc(-c4ncon4)cn2)C3)ccc2c1COC2=O [Example 17, 5-(2-(2-(5-(1,2,4-oxadiazol-3-yl)pyridin-2-yl)-2,8-diazaspiro[4.5]decan-8-yl)ethyl)-4-methylisobenzofuran-1(3H)-one] |
| 187 nM | Cc1c([C@@H](O)CN2CCC3(CC2)OCCN(c2ccc(S(C)(=O)=O)cn2)C3=O)ccc2c1COC2=O [Example 97, (R)-9-(2-Hydroxy-2-(4-methyl-1-oxo-1,3-dihydroisobenzofuran-5-yl)ethyl)-4-(5-(methylsulfonyl)pyridin-2-yl)-1-oxa-4,9-diazaspiro[5.5]undecan-5-one] |
| 104 nM | Cc1c([C@@H](O)CN2CCC3(CC2)CN(c2ccc(C#N)cn2)C3)ccc2c1COC2=O [Example 45, (R)-6-(7-(2-Hydroxy-2-(4-methyl-1-oxo-1,3-dihydroisobenzofuran-5-yl)ethyl)-2,7-diazaspiro[3.5]nonan-2-yl)nicotinonitrile] |
| 56 nM | Cc1c([C@@H](O)CN2CCC3(CCCN(c4ccc(S(C)(=O)=O)cn4)C3)CC2)ccc2c1COC2=O [Example 61, (R)-5-(1-hydroxy-2-(2-(5-(methylsulfonyl)pyridin-2-yl)-2,9-diazaspiro[5.5]undecan-9-yl)ethyl)-4-methylisobenzofuran-1(3H)-one] |
| 82.2 nM | Cc1c([C@@H](O)CN2CCC3(CC2)CC(=O)N(c2ccc(S(C)(=O)=O)cc2)C3)ccc2c1COC2=O [Example 74, 8-[(2R)-2-Hydroxy-2-(4-methyl-1-oxo-1,3-dihydro-2-benzofuran-5-yl)ethyl]-2-[4-(methylsulfonyl)phenyl]-2,8-diazaspiro[4.5]decan-3-one hydrochloride] |
| 42.4 nM | COc1cc(N2CC3(CCN(C[C@H](O)c4ccc5c(c4C)COC5=O)CC3)C2)ncc1C#N [Example 50, (R)-6-(7-(2-hydroxy-2-(4-methyl-1-oxo-1,3-dihydroisobenzofuran-5-yl)ethyl)-2,7-diazaspiro[3.5]nonan-2-yl)-4-methoxynicotinonitrile] |
| 74.2 nM | Cc1c([C@@H](O)CN2CCC3(CC2)CC(=O)N(c2cnc(S(C)(=O)=O)cn2)C3)ccc2c1COC2=O [Example 35, (R)-8-(2Hydroxy-2-(4-methyl-1-oxo-1,3-dihydroisobenzofuran-5-yl)ethyl)-2-(5-(methylsulfonyl)pyrazin-2-yl)-2,8-diazaspiro[4.5]decan-3-one] |
| 41.1 nM | Cc1c([C@@H](O)CN2CCC3(CC2)CCN(c2ccc(S(C)(=O)=O)cn2)C3)ccc2c1COC2=O [Example 22, (R)-5-(1-Hydroxy-2-(2-(5-(methylsulfonyl)pyridin-2-yl)-2,8-diazaspiro[4.5]decan-8-yl)ethyl)-4-methylisobenzofuran-1(3H)-one] |
| 71 nM | Cc1c([C@@H](O)CN2CCC3(CC2)CN(c2ccc(S(C)(=O)=O)nn2)C3)ccc2c1COC2=O [Example 48, (R)-5-(1-Hydroxy-2-(2-(6-(methylsulfonyl)pyridazin-3-yl)-2,7-diazaspiro[3.5]nonan-7-yl)ethyl)-4-methylisobenzofuran-1(3H)-one] |
| 100 nM | Cc1c([C@@H](O)CN2CCC3(CC2)CC(=O)N(c2ccc(-n4cnnn4)nc2)C3)ccc2c1COC2=O [Example 72, 8-[(2R)-2-Hydroxy-2-(4-methyl-1-oxo-1,3-dihydro-2-benzofuran-5-yl)ethyl]-2-[6-(1H-tetrazol-1-yl)pyridin-3-yl]-2,8-diazaspiro[4.5]decan-3-one hydrochloride] |
| 13.5 nM | Cc1c([C@@H](O)CN2CCC3(CC2)CCN(c2ccc(C#N)nn2)CC3)ccc2c1COC2=O [Example 105, (R)-6-(9-(2-hydroxy-2-(4-methyl-1-oxo-1,3-dihydroisobenzofuran-5-yl)ethyl)-3,9-diazaspiro[5.5]undecan-3-yl)pyridazine-3-carbonitrile] |
| 99.8 nM | Cc1c([C@@H](O)CN2CCC3(CCN(c4cnc(S(C)(=O)=O)cn4)CC3)C2)ccc2c1COC2=O [Example 65, 5-[(1R)-1-Hydroxy-2-{8-[5-(methylsulfonyl)pyrazin-2-yl]-2,8-diazaspiro[4.5]dec-2-yl}ethyl]-4-methyl-2-benzofuran-1(3H)-one hydrochloride] |
| 84 nM | COc1cc(N2CC3(CCN(C[C@H](O)c4ccc5c(c4C)COC5=O)CC3)OC2=O)ncc1C#N [Example 95, (R)-6-(8-(2-Hydroxy-2-(4-methyl-1-oxo-1,3-dihydroisobenzofuran-5-yl)ethyl)-2-oxo-1-oxa-3,8-diazaspiro[4.5]decan-3-yl)-4-methoxynicotinonitrile] |
| 563 nM | Cc1c([C@@H](O)CN2CCC3(CC2)CCN(c2ccc(S(C)(=O)=O)nc2)CC3)ccc2c1COC2=O [Example 103, (R)-5-(1-hydroxy-2-(9-(6-(methylsulfonyl)148yridine-3-yl)-3,9-diazaspiro[5.5]undecan-3-yl)ethyl)-4-methylisobenzofuran-1(3H)-one] |

| Compound | IC50 |
| --- | --- |
| Cc1c([C@@H](O)CN2C3CCC2CC2(CC(=O)N(c4ccc(C#N)cn4)C2)C3)ccc2c1COC2=O (stereo partly drawn) [Example 29, 6-(8-((R)-2-Hydroxy-2-(4-methyl-1-oxo-1,3-dihydroisobenzofuran-5-yl)ethyl)-5′-oxo-8-azaspiro[bicyclo[3.2.1]octane-3,3′-pyrrolidin]-1′-yl)nicotinonitrile] | 198 nM |
